Measured values reported in publication PMC11487561 (ACS Chemical Neuroscience, 2024).
Like-named read-outs stand apart in the source and are kept apart here.

Tests used:
human M4 (hM4) = target: T1, human M4 (hM4) (Homo sapiens, UniProt P08173); assay: Calcium mobilization assay, hM4/Gqi5-CHO cells, EC20 acetylcholine (PAM); assay type: cell-based
T1 construct: expressed in transfected cells
T1 sequence (P08173 1-479): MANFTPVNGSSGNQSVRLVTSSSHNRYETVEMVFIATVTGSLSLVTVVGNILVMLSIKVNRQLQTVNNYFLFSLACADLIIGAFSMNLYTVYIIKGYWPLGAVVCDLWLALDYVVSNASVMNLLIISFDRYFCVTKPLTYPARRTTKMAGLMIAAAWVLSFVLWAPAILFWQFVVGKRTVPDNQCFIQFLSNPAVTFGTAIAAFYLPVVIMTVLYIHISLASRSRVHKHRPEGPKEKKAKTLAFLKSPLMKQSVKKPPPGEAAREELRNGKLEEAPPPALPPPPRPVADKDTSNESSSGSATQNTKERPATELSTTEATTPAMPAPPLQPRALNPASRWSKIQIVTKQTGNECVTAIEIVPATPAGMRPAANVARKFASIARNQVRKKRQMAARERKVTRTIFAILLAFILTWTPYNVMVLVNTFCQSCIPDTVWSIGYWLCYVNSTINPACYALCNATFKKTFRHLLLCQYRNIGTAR

rat M4 (rM4) = rat M4 (rM4) (Rattus norvegicus, UniProt P08485); assay: Calcium mobilization assay, rat M4; assay type: cell-based
Sequence of rat M4 (rM4) (P08485 whole entry): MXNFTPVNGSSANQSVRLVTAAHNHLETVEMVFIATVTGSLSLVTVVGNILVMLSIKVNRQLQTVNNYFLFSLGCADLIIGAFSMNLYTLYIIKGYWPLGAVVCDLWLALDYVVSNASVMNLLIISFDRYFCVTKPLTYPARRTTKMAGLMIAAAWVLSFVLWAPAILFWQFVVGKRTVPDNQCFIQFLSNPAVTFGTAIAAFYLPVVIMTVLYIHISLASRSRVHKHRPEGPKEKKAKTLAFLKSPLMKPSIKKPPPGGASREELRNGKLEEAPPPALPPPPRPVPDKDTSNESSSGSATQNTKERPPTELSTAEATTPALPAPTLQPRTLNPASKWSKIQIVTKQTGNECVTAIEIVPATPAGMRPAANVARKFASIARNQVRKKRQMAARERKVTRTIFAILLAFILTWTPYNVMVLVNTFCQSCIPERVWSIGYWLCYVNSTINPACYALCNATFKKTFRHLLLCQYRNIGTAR

[1] = Intrinsic clearance in rat liver microsomes; assay type: in vitro ADME
Protocol: (§1) Intrinsic Clearance in Rat and Human Liver Microsomes
(§2) The in vitro intrinsic clearance (CL int) was investigated in commercially obtained hepatic microsomes from rat and human donors using the substrate depletion (i.e., loss-of-parent vs. time, or t 1/2 method) approach with analyte detection via liquid chromatography-tandem mass spectrometry (LC-MS/MS). For each species, mean %parent remaining values at each time point were calculated from replicates raw data (analyte:IS peak area ratios) and used to determine in vitro t 1/2 and CLint.
(§3) Experiments were carried out using a robot-assisted (TECAN model Evo 200). Compound was incubated (1 µM final concentration) in buffer (100 mM potassium phosphate pH 7.4 with 3 mM MgCl2) containing hepatic microsomes (0.5 mg/mL final concentration) from multiple species, discretely, at 37 °C under constant orbital shaking. After 5 minutes (pre-incubation), reactions were initiated by addition of nicotinamide adenine dinucleotide phosphate (NADPH, 1 mM final concentration). At selected time intervals (0, 3, 7, 15, 25, and 45 minutes) post-addition of NADPH, aliquots (50 µL) were taken and placed into a 96-shallow-well plate containing ice cold acetonitrile (150 µL) with carbamazepine (IS, 50 nM). The plates were then centrifuged (3000 rcf at 4 °C) for 10 minutes. The supernatants were transferred to a new 96-shallow-well daughter plate and diluted (1:1 v/v) with water (Milli-Q filtered). The plates were then sealed in preparation for LC-MS/MS analysis (see below).
(§4) Raw LC-MS/MS peak area data generated from the assay samples were used to construct natural log-transformed %parent remaining vs. time plots (using t = 0 minute post-NADPH addition sample data as starting point set to 100%). In vitro compound half-life (t 1/2) values were obtained using the following […]
(§5) k is the slope from linear regression analysis of the natural log-transformed data (using means from Where all replicates at each time point). Resulting t 1/2 values were then used to calculate hepatic CLint values according to the following equation and with the use of species-specific scale-up factors for liver weight (grams) per total body weight (kg): […]
(§6) CLint = in vitro t1/2 x 0.5 mg microsomes x 1 gram liver x kg body wt aScale-up factors used are 45 (rat) and 20 (human).2
(§7) Predicted hepatic clearance (CLhep) was calculated using the following equation: […]
(§8) Qh represents hepatic blood flow (mL/min/kg): 21 for human, 70 for rat, and 90 for mouse.
(§9) Prepared samples were injected (10 µL each) onto an AB Sciex Triple Quad 4500 mass spectrometer system with an Agilent 1260 Infinity II pump and autosampler. Mass spectrometer conditions are described in Table S1. Quantitation of compounds was performed via AB Sciex Multiquant software using the raw analyte:IS peak area ratios. The typical detection range was 0.5 ng/mL to ≥ 5,000 ng/mL utilizing a quadratic equation regression with 1/x2 weighting. […]
(§10) Table S1. LC-MS/MS Conditions*
(§11) Mobile phase A 0.5% Formic Acid in Water
(§12) Mobile phase B 0.5% Formic Acid in Acetonitrile
(§13) Gradient Time % Mobile Phase B

[2] = Intrinsic clearance in human liver microsomes; assay type: in vitro ADME
Protocol: as §1, §2, §3, §4, §5, §6, §7, §8, §9, §10, §11, §12, §13

[3] = Binding in plasma from rat (equilibrium dialysis); assay type: in vitro ADME; conditions: read-out: rat fu,plasma
Protocol: (§14) Binding in plasma from rat and human.
(§15) Determination of compounds’ fraction unbound (f u) in plasma from rat and human was conducted in vitro via equilibrium dialysis using HTDialysis membrane plates. Dialysis membranes (four paired strips per HTD assay) were hydrated as described by the manufacturer and inserted into the HTD plate, which was assembled and prepared for sample addition by the dispensing of blank buffer (DPBS, 100 µL/well) into the ‘top half’ of each membrane-split well. Each compound was diluted into plasma from each species (5 µM final concentration), which was aliquoted in triplicate to the ‘bottom half’ of the prepared HTD plate wells. The HTD plate was sealed and incubated for 6 hours at 37 °C. Following incubation, each well (both top and bottom halves) were transferred (20 µL) to the corresponding wells of a 96-shallow-well (V-bottom) plate. The daughter plates were then matrix-matched (buffer side wells received equal volume of plasma, and plasma side wells received equal volume of buffer), and extraction solution (120 µL; acetonitrile containing 50 nM carbamazepine as IS) was added to all wells of both daughter plates to precipitate protein and extract test article. The plates were then sealed and centrifuged (3500 rcf) for 10 minutes at ambient temperature. Supernatant (60 µL) from each well of the daughter plates was then transferred to the corresponding wells of new daughter plates (96-shallow-well, V bottom) containing water (Milli-Q, 60 µL/well), and the plates were sealed in preparation for LC-MS/MS analysis (see below). fu was calculated as (analyte to IS MS peak area ratio from Trans-buffer side) / (analyte to IS MS peak area ratio from Cis-plasma side). Mean values for each species were calculated from 3 replicates.

[4] = Binding in plasma from human (equilibrium dialysis); assay type: in vitro ADME; conditions: human, plasma, read-out: human fu,plasma
Protocol: as §14, §15

[5] = Binding in brain homogenate from rat (equilibrium dialysis); assay type: in vitro ADME
Protocol: Binding in brain homogenate from rat.
Determination of fraction unbound (f u) in brain homogenate from rat was conducted using the same methodology and procedure than described for plasma protein binding assay with the following modifications: 1) a final compound concentration of 1 μM was used, 2) naïve rat brains were homogenized in DPBS (1:3 composition of brain: DPBS, w/w) using a Mini-Bead Beater™ machine in order to obtain […]
The diluted fraction unbound (f u2) in brain was calculated as (analyte to IS MS peak area ratio from Trans-buffer side) / (analyte to IS MS peak area ratio from Cis-brain homogenate side). Undiluted fraction unbound for the brain was calculated using the following equation: […]
Mean values for each species were calculated from 3 replicates. […]

[6] = Rat plasma-to-brain level (PBL) cassette, brain distribution; assay type: in vivo; conditions: SD rat, 0.2 mg/kg IV
[7] = predicted hepatic clearance from microsomal CLint
[8] = fraction unbound, equilibrium dialysis

fold increase in hM4 potency (EC50) vs comparator analogue (human M4 (hM4); 14h vs 14c, 22g vs 14j, 22j vs 14k, 22k vs 14g, 22f vs 14e): 16 fold
Emax (human M4 (hM4); calcium mobilization, hM4/Gqi5-CHO cells, EC20 acetylcholine, read-out: hM4 %ACh Max): 50%
EC50 (human M4 (hM4); calcium mobilization, hM4/Gqi5-CHO cells, EC20 acetylcholine, read-out: hM4 EC50): 0.1 µM
EC50 (human M4 (hM4); calcium mobilization, hM4/Gqi5-CHO cells, EC20 acetylcholine, read-out: hM4 pEC50 (converted)): 0.102 µM
EC50 (rat M4 (rM4)): 0.38 µM
CLint scaled at 1 µM ([1]; pH 7.4, rat liver microsomes): 7.26 L/h/kg
CLhep, rat [1, 7]: 2.64 L/h/kg
CLint scaled at 1 µM ([2]; pH 7.4, human liver microsomes): 2.7 L/h/kg
CLhep, human [2, 7]: 0.84 L/h/kg
fraction unbound at 6 h, 5 µM [3, 8]: 0.132
fraction unbound at 6 h, 5 µM ([3]; in %): > 0.05
fraction unbound at 6 h, 5 µM [4, 8]: 0.035
fraction unbound at 6 h, 5 µM ([4]; in %): 0.01 to 0.05
rat fbrain ([5]; fraction unbound, equilibrium dialysis, rat brain homogenates): 0.033
fraction unbound at 6 h, 1 µM ([5]; rat, brain homogenate, in %, read-out: fu,brain (rat brain homogenate)): 0.012 to 0.033
Kp, brain:plasma ([6]; 0.25 h, total brain to total plasma ratio, 0.2 mg/kg): 5.07
Kp,uu, brain:plasma ([6]; 0.25 h, unbound brain to unbound plasma ratio, 0.2 mg/kg): 1.27
Kp,uu, brain:plasma ([6]; 0.25 h, unbound brain to unbound plasma ratio, listed as VU6015976, 0.2 mg/kg): 0.76
Kp at 0.25 h ([6]; male, Sprague-Dawley, rat, brain / plasma, iv, 0.2 mg/kg, total brain to total plasma ratio): > 5
Kp uu at 0.25 h ([6]; male, Sprague-Dawley, rat, brain / plasma, iv, 0.2 mg/kg, unbound brain to unbound plasma ratio): > 1
Compound: Cc1nc(C)c2c(n1)sc1c(N3CC4(C3)CC(F)(F)C4)ncnc12 [14h]
